In series [1] the target is T1, B-cell lymphoma 3 protein (Homo sapiens) (UniProt P20749).
T1 sequence (whole entry): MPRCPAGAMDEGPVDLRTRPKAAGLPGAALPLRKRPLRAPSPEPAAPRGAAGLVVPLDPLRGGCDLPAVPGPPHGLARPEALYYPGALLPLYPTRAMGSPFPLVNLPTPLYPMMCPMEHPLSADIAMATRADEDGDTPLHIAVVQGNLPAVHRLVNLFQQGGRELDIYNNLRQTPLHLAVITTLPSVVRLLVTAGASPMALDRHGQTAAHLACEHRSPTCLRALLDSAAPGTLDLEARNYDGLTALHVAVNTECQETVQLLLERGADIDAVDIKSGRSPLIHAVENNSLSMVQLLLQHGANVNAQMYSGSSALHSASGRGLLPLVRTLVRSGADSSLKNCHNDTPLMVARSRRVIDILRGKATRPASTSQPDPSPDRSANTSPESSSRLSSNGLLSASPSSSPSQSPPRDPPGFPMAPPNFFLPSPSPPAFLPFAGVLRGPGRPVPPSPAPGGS
As to the kind of experiment: Inhibition of Bcl-3 in human MDA-MB-231 cells assessed as reduction in NF-kappaB signalling at 1 uM incubated for 24 hrs by NF-kappaB promoter dependent luciferase reporter gene assay. It counts as cell-based.

The subject of series [2] is HEK293. As to the kind of experiment: Toxicity against HEK293 cells assessed as reduction in cell viability at 10 uM incubated for 24 hrs by cell titre blue viability assay relative to control. In kind it is cell-based. The conditions noted are these: human, hek293, 24 h.
Series [3] concerns MDA-MB-231. As to the kind of experiment: Toxicity against human MDA-MB-231 cells assessed as reduction in cell viability at 10 uM incubated for 24 hrs by cell titre blue viability assay relative to control. In kind it is cell-based. The conditions noted are these: mda-mb-231, 24 h.
Series [4] is described as follows: Solubility in water assessed per 100 ml. The conditions noted are these: buffer. In kind it is physicochemical.
Series [5] is described as follows: Solubility in methanol assessed per 100 ml. It counts as physicochemical.
A short description of series [6]: Solubility in ethanol assessed per 100 ml. In kind it is physicochemical.
Series [7] in a line: Solubility in DMSO assessed per 100 ml. In kind it is physicochemical.
A short description of series [8]: Solubility in ethyl acetate assessed per 100 ml. In kind it is physicochemical.
Series [9] can be described thus: Solubility in dichloromethane assessed per 100 ml. In kind it is physicochemical.
The nature of series [10]: Solubility in diethyl ether assessed per 100 ml. In kind it is physicochemical.
Series [11] concerns MDA-MB-231. The series is described as follows: Inhibition of cell migration of human MDA-MB-231 cells overexpressing Bcl-3 assessed as cell motility at 10 nM incubated for 24 hrs by Boyden chamber assay relative to control. The arrangement: scale not given: the % may be the effect or the level left. It counts as functional.
In series [12] the test system is MDA-MB-231. The series is described as follows: Inhibition of cell migration of human MDA-MB-231 cells overexpressing Bcl-3 assessed as reduction in cell motility incubated for 24 hrs by Boyden chamber assay. In kind it is functional, cell-based. Particulars: MDA-MB-231, 24 h.

The source made the active and inactive calls. The calls are words filed in the database; no cut-off is given here.

With `O=C(Nc1ccccc1C(=O)NCCN1CCOCC1)c1ccccc1F` [listing 1 of 2 here], the inhibition result in series [1] is “Active”.

Turning to `O=C(Nc1ccccc1C(=O)NCCN1CCOCC1)c1ccc(F)cc1`, the Activity in series [2] and in series [3] was greater than 70% throughout.

As to `COc1ccc(C(=O)Nc2ccccc2C(=O)NCCN2CCOCC2)cc1OC`, the Activity in series [2] and in series [3] was greater than 90% throughout.

Regarding `O=C(Nc1ccccc1C(=O)NCCc1ccccn1)c1ccccc1F`, the Activity in series [2] and in series [3] was greater than 70% in each case.

With `Cl.O=C(Nc1ccccc1C(=O)NCCN1CCOCC1)c1ccccc1F`, the solubility in series [4] is on record as 0.95 g; in series [5] it was 0.59 g; in series [6] it was 0.19 g; in [7], less than 0.01 g; in series [8], 0.02 g; in series [9], 0.9 g. In series [10], this compound showed a solubility of 0.01 g.

With `Cc1ccccc1C(=O)Nc1ccccc1C(=O)NCCN1CCOCC1`, the Activity in [2] and in series [3] was greater than 70% in each case.

Turning to `O=C(Nc1ccccc1C(=O)NCCCN1CCOCC1)c1ccccc1F`, the Activity in [2] and in series [3] was greater than 70% throughout. For the same compound, in series [1], the inhibition result was “Active”.

`O=C(Nc1ccccc1C(=O)NCCN1CCOCC1)c1ccc([N+](=O)[O-])cc1`: the Activity in series [2] and in series [3] was greater than 70% throughout.

`O=C(Nc1ccccc1C(=O)NCCN1CCCCC1)c1ccccc1F`: the Activity in series [2] and in [3] was greater than 70% in each case. Further, the inhibition entry in series [1] is “Active”.

For `O=C(Nc1ccccc1C(=O)NCCN1CCOCC1)c1cc(F)cc(F)c1`, the Activity in [2] and in series [3] was greater than 90% each time.

On to `COc1ccc(C(=O)Nc2ccccc2C(=O)NCCN2CCOCC2)cc1`, for which the Activity in [2] was greater than 70%; in [3] it was greater than 70%; in series [11] it was less than 50%. The inhibition result in series [1] is “Active”.

For the compound `O=C(NCCN1CCOCC1)c1ccccc1NC(=O)c1ccccc1[N+](=O)[O-]`, the Activity in series [2] and in series [3] was greater than 70% each time.

`O=C(Nc1cccc(Cl)c1C(=O)NCCN1CCOCC1)c1ccccc1F`: the Activity in series [2] and in series [3] was greater than 70% each time.

Take `COc1cc(OC)cc(C(=O)Nc2ccccc2C(=O)NCCN2CCOCC2)c1`: the Activity in series [2] and in series [3] was greater than 90% throughout.

Regarding `O=C(Nc1ccccc1C(=O)NCCN1CCOCC1)c1ccc(F)cc1F`, the Activity in [2] and in series [3] was greater than 90% throughout.

As to `COc1cc(C(=O)Nc2ccccc2C(=O)NCCN2CCOCC2)cc(OC)c1OC`, the Activity in series [2] and in [3] was greater than 90% in each case.

Regarding `O=C(Nc1ccccc1C(=O)NCN1CCCC1)c1ccccc1F`, the Activity in [2] and in [3] was greater than 70% throughout. Besides, in series [12], the IC50 was found to be 3.65 µM.

Consider `O=C(Nc1ccccc1C(=O)NCCN1CCOCC1)c1ccccc1F` [listing 2 of 2 here], for which the Activity in series [2] and in series [3] was greater than 70% throughout. In addition, the solubility in series [4] was less than 0.01 g; in series [5] it was 0.2 g; in [6], 0.09 g; in series [7] it was 3.71 g; in series [8], 0.34 g; in [9] it was 2.91 g. This compound also yielded a solubility in [10] of 0.09 g.

For `COc1cccc(C(=O)Nc2ccccc2C(=O)NCCN2CCOCC2)c1`, the Activity in series [2] and in series [3] was greater than 70% throughout.

`O=C(NCCN1CCOCC1)c1ccccc1NC(=O)c1c(F)cccc1F`: the Activity in [2] and in [3] was greater than 90% each time.

With `O=C(Nc1ccc(I)cc1C(=O)NCCN1CCOCC1)c1ccccc1F`, the inhibition entry in series [1] is “Active”.

Turning to `Cc1cccc(C(=O)NCCN2CCOCC2)c1NC(=O)c1ccccc1F`, the Activity in series [2] and in [3] was greater than 70% throughout.

Take `NCCNC(=O)c1ccccc1NC(=O)c1ccccc1F`: the Activity in [2] and in series [3] was greater than 70% throughout.

As to `COc1cccc(C(=O)NCCN2CCOCC2)c1NC(=O)c1ccccc1F`, the Activity in [2] and in [3] was greater than 70% each time.

The record behind these values is ChEMBL document CHEMBL4421724, “2-benzoylaminobenzamide derivatives as bcl-3 inhibitors” (2016).
